Patent EP0652217A1, “N-substituted imidazole derivatives” (MITSUBISHI CHEMICAL CORPORATION, priority 1993, dated 1995)

Columns and labels:
Type in all cases: in vivo
golden syrian hamsters = assay: Anti-hyperlipemic activity: inhibition of serum total cholesterol increase in cholesterol-fed hamsters; conditions: hamsters on feed with 1 % cholesterol and 0.5 % cholic acid
Experimental: Six-week old golden syrian hamsters (4 to 5 animals/group) were used.
Untreated control group received normal solid feed (MF, Oriental Kobo Kogyo), while control and a drug-treated groups received feed containing 1 % cholesterol and 0.5 % cholic acid (manufactured by Oriental Kobo Kogyo) to induce […].
The test compound was suspended in 1.0 % Tween 80. The solvent or the test compound was started to be orally administered (10 ml/kg, once a day, for 5 days) as soon as feed was changed to cholesterol-containing feed. Alter final administration, blood was drawn from abdominal descendens main vein while anesthetized with nembutal. Serum was collected and total cholesterol (TC) in serum was determined according to enzymatic method using assay kit (Kyowa Medics).

KK-A^v mice = assay: Activity to lower blood sugar (hypoglycaemic activity) in KK-A^v mice; conditions: serum
Experimental: Ten-week old KK-A^v mice (4 - 6 animals/group) were used.
The solvent (1 % Tween 80 solution) or a suspension of the test compound was orally administered once a day for 11 days (10 ml/kg).
Before administration and after the final administration, blood was drawn from caudal vein, and serum was collected and blood sugar level in serum was determined.
There was no difference between blood sugar levels before and after administration for control group. The test compound provided statistically significant decrease in blood sugar level for KK-A^v mice compared with the value before administration. The change in weight of test compound-treated group during oral administration was almost same as that of the control group.

[1] = system: Spontaneously hypertensive rats (SHR); assay: Antihypertensive activity: blood pressure lowering in SHR; conditions: oral, suspended in 1.0 % Tween 80
Experimental: Spontaneously hypertensive rats (SHR) were anesthetized with ether and polyethylene catheter for measurement of blood pressure was inserted in ventral aortas via caudal artery on the day before these experiments, and placed in separate cages and their tails were fixed. Under aparalytic conditions, blood pressure of semi-restrained rats was measured using a pressure transducer (TP-400T, manufactured by Nippon Koden). Heart rate was determined from pulse wave measured by a cardiotachometer (AT0691G, manufactured by Nippon Koden). On the test day, the test compounds were administered to rats after blood pressure and heart rate were confirmed to become sufficiently stable.
The test compounds were suspended in Tween 80 (1.0 % solution, 10 ml/kg) and orally administered to SHRs.

[2] = oral 30 mg/kg once a day for 5 days
[3] = oral 100 mg/kg once a day for 5 days

SMILES	Inhibition of TC increase (golden syrian hamsters; [2])	Inhibition of TC increase (golden syrian hamsters; [3])	Maximum fall in blood pressure ([1]; dose 10 mg/kg)	also measured
c1cc(OCCCn2ccnc2)c2c(c1)OCO2 [Compound 1, 4-[3-(1-imidazolyl)propoxy]-1,3-benzodioxole]	80%	100%	–	Blood sugar level, After administration (KK-A^v mice; after oral 30 mg/kg once a day for 11 days, P < 0.05 vs value before administration): 532.2 ± 23.9; Blood sugar level, Before administration (KK-A^v mice; baseline before administration, 30 mg/kg group): 676.4 ± 33.7
N#Cc1ncn(CCCOc2cccc3c2OCO3)c1C#N [Compound 4, 4-[3-(4,5-dicyano-1-imidazolyl)propoxy]-1,3-benzodioxole]	–	–	-20 mmHg	–
Clc1ncn(CCCOc2cccc3c2OCO3)c1Cl [Compound 5, 4-[3-(4,5-dichloro-1-imidazolyl)propoxy]-1,3-benzodioxole]	–	–	-20 mmHg	–
c1cc(OCCCn2cnc3ccccc32)c2c(c1)OCO2 [Compound 6, 4-[3-(1-benzimidazolyl)propoxy]-1,3-benzodioxole]	–	–	-20 mmHg	–
c1cc(OCCCCn2ccnc2)c2c(c1)OCO2 [Compound 7, 4-[4-(1-imidazolyl)butoxy]-1,3-benzodioxole]	38%	–	-60 mmHg	–
c1cc(OCCCCCn2ccnc2)c2c(c1)OCO2 [Compound 8, 4-[5-(1-imidazolyl)pentoxy]-1,3-benzodioxole]	–	–	-25 mmHg	–
O=C(NCCCn1ccnc1)c1ccc2c(c1)OCO2 [Compound 13, N-[3-(1-imidazolyl)propyl]-3,4-methylenedioxybenzamide]	26%	60%	–	–
O=C(NCCCn1ccnc1)c1ccc2c(c1)OCCO2 [Compound 16, N-[3-(1-imidazolyl)propyl]-1,4-benzodioxane-6-carboxamide]	–	79%	–	Maximum fall in blood pressure ([1]; dose 30 mg/kg): -34.3 mmHg
